These results are taken from patent US20250228869A1, “Benzodiazepine Pyrazolo Carboxamides as N-protein Inhibitors” (Pfizer Inc., priority 2024, published 2025).

A short description of series [1]: Shake flask determination of distribution coefficient (log D). Particulars: 1-octanol / phosphate buffer. It counts as physicochemical. The method, then:
Shake flask method of determining log D—Miniaturized version of log D assay described in Stopher, D. and McClean, S. J. Pharm. Pharmacol. 1990, 42, 144.
Nadolol, mexiletine, propranolol, quinidine, amitriptyline, and chlorproazine were dissolved in DMSO to a concentration of 10 mM and used as controls in each plate. D-neo-Inositol, 5-[[(2E)-3-[4-[[(5E)-5-[[(3-chloro-2,6-difluorophenyl)methoxy]imino]-5,6-dideoxy-β-D-arabino-hexofuranosyl]oxy]-3-hydroxyphenyl]-2-methyl-1-oxo-2-propenyl]amino]-5-deoxy-1,2-O-methylene-(9Cl) (CAS 247598-17) is used as an Internal Standard (IS).
All liquid handling steps were performed by a Biomek FX. Buffer-saturated 1-octanol (149 μL/well) was added to duplicate 1 mL capacity 96-well plates. Test compounds (10 mM in DMSO; 2 μL/well) and controls (10 mM in DMSO; 2 μL/well) were transferred from Matrix 2D barcoded storage tubes to the 96-well plates.
Following the addition of 1-octanol saturated phosphate buffer (149 μL/well), the plates were sealed with silicone well cap-mats. […]
Samples were analyzed by micro-flow reversed-phase liquid chromatography coupled to tandem mass spectrometry (μfLC-MS/MS). […]
Peak areas were corrected by dilution factors and incorporating internal standard, and the ratio of the corrected peak areas were used to calculate the results (log D value). The log D value for each compound was calculated using the following equation: […]

Series [2] can be described thus: In vitro bone marrow assay. It counts as cell-based. To be noted: primary human bone marrow mononuclear cells, 5 days exposure, total cell count, read-out: Human Bone Marrow Tox IC50. As for the experimental part: In vitro bone marrow assay—Chen, W., et al., J. Pharmacokinetics and Pharmacodynamics, 2020, 47, 163-182.
Primary human bone marrow mononuclear cells (Lonza) were cultured in stemline II hematopoietic stem cell expansion medium (Sigma Aldrich), supplemented with 5% FBS and under induction by the following cytokines (R&D Systems): 25 ng/mL stem cell factor (SCF), ng/mL G-CSF, 10 ng/mL granulocyte macrophage-colony stimulating factor, 3 U/mL erythropoietin (EPO), 15 ng/mL thrombopoietin (TPO), 10 ng/mL IL3, 10 ng/mL IL6, and ng/mL Flt3 ligand. Cell cultures were maintained in the 37° C., 5% CO2, and 98% humidity incubator (see reference for further details). Cells were preincubated for 1 day and were then exposed to either DMSO or compound for 5 additional days. Cell counts were determined manually using a hemocytometer from 10 μL aliquots and converted to the total cell number by adjusting for the volume of the cell culture medium in each well. While the total cell count included myeloid, erythroid, and megakaryocytic lineages, neutrophil precursors comprised the majority of the total cell population given the stimulatory conditions of the cell culture. […]

Series [3] is described as follows: Relay method using human hepatocytes (clearance). The class given is in vitro ADME. To be noted: human hepatocytes incubations under relay conditions. The source says: Relay Method Using Human Hepatocytes—Di, L., et al., Drug Metabolism and Disposition, 2012, 40, 1860-1865.
Pooled cryopreserved human hepatocytes of 10 donors were purchased from Celsis IVT (Baltimore, MD). This lot of pooled hepatocytes was used for all the studies. When selecting new lots of hepatocytes, enzyme activities need to be verified using marker compounds. Upon thawing, the hepatocytes were resuspended in Williams' medium E (custom formula number 91-5233EC; Invitrogen, Grand Island, NY) supplemented with HEPES and Na2CO3. The cells were counted using the trypan blue exclusion method, and the 24-well hepatocyte plates containing 0.5 million cells/ml were spiked with a compound at a final concentration of 1 μM (dimethyl sulfoxide, final concentration 0.025%; methanol, final concentration 0.125%), in a final incubation volume of 0.50 ml. […]
The LC mobile phases were as follows: (A) HPLC grade water containing 0.1% formic acid, and (B) acetonitrile containing 0.1% formic acid. […] Terfenadine was used as an internal standard for LC-MS/MS quantification in positive ion multiple reaction monitoring mode. All of the test compounds had good linearity with R^2>0.99, and the limit of quantitation was 1 nM for all of the compounds.
Human in vitro intrinsic clearance was calculated using methods as previously described in the reference above.

Series [4] relates to RSV A2. Briefly: RSV plaque reduction assay in HepG2 cells. It counts as cell-based. Particulars: human respiratory syncytial virus, HepG2, read-out: RSV A2 plaque, HepG2, EC50 (nM). The source says: The RSV plaque reduction assay is an infectivity assay which allows quantification of the number of infectious units in a distinct foci of RSV infection. As each plaque originates from a single infectious virus particle an accurate calculation of the anti-viral effect can be obtained by counting plaques in the presence and absence of an anti-viral compound. HepG2 cells (ECACC: 85011430) were passaged in flasks and seeded in 24-well plates in DMEM containing antibiotics and supplemented with 10% FBS. During inoculation and subsequent incubation, cells were cultured in DMEM containing 2% FBS. 100 plaque forming unit (PFU)/well of RSV (RSV A2 VR-1540) was mixed with serial dilutions of compound. Subsequently, 100 μL of the virus/compound mixtures was added to confluent HepG2 cell monolayers. Plates were incubated at 37° C. in a humidified 5% CO2 incubator for 2 hrs. The inoculum was then removed and 1 ml of overlay (4% CMC in 2% DMEM) was added to each well. Cells were cultured for 48 h at 37° C. in a humidified 5% CO2 incubator and then fixed with 75% acetone-25% methanol solution. Plates were washed under running water and blocking solution (2% skimmed milk powder in PBS-Tween) was added to each well and plates incubated on a shaker for 1 h at 37° C. […]
In general terms: Plaques are areas of infected cells; plaque reduction assays count them against a control.

Series [5] concerns RSV. Particulars: Antimicrobial Agents and Chemotherapy 2007 (Chapman et al); cited from earlier work.

What is called logD is lipophilicity at a set pH, counting ionised and neutral species. The low end stands for lower lipophilicity, the high end for higher lipophilicity. Usually IC50 stands for the midpoint of a concentration-inhibition curve. The EC50 is the concentration needed to bring the measured effect to its halfway point.

Molecules are shown by their SMILES. Marks after values point to notes of the source that are not given here.

On to `CCS(=O)(=O)c1ccc(-c2nn3c(c2C(=O)N[C@H]2N=C(c4ccccc4)c4cccc(F)c4NC2=O)OCC(C)(C)C3)c(F)c1` [Example 2, (S)-2-(4-(ethylsulfonyl)-2-fluorophenyl)-N-(9-fluoro-2-oxo-5-phenyl-2,3-dihydro-1H-benzo[e][1,4]diazepin-3-yl)-6,6-dimethyl-6,7-dihydro-5H-pyrazolo[5,1-b][1,3]oxazine-3-carboxamide], for which the logD in series [1] was determined as 3. Besides, in series [2], the IC50 at 5 days was > 40000 nM. Also, the “Human Hepatocyte CLint,app (mL/min/million)” value in series [3] is <0.14* mL/min/million. Also, the EC50 in series [4] came to 3.5 nM.

As for `O=C(Nc1ccccc1F)N[C@H]1N=C(c2ccccc2)c2ccccc2NC1=O` [RSV604], the anti-RSV activity entry in series [5] is “sub-micromolar”.
